According to ChEMBL document CHEMBL1949602, “Bacterial biofilm formation inhibitory activity revealed for plant derived natural compounds” (Bioorg Med Chem, 2012):
≈ marks a conversion by molar mass, not a printed value. Calls of active or inactive are those of the source. No cut-off for these calls is given here.

Assays:
Staphylococcus aureus [1] = assay: Antibacterial activity against Staphylococcus aureus ATCC 6538P assessed as inhibition of planktonic growth at sub-MIC measured up to 25 hrs; format: functional, organism-based
[2] = tested on: Staphylococcus epidermidis; assay: Antibacterial activity against Staphylococcus epidermidis ATCC 35984 assessed as inhibition of biofilm formation after 24 hrs by crystal violet staining; format: functional, organism-based; settings: ATCC 35984, 24 h
Staphylococcus aureus [3] = assay: Antibacterial activity against Staphylococcus aureus ATCC 6538P assessed as inhibition of biofilm formation after 24 hrs by crystal violet staining; format: functional, organism-based
[4] = tested on: Staphylococcus epidermidis; assay: Antibacterial activity against Staphylococcus epidermidis ATCC 35984 incubated in drug free medium for 18 hrs after MIC determination by broth microdilution method; format: functional; settings: ATCC 35984, 18 h
[5] = tested on: Staphylococcus epidermidis; assay: Antibacterial activity against Staphylococcus epidermidis ATCC 35984 by broth microdilution method; format: functional
Staphylococcus aureus [6] = assay: Antibacterial activity against Staphylococcus aureus ATCC 6538P by broth microdilution method; format: functional
Staphylococcus aureus [7] = assay: Antibacterial activity against Staphylococcus aureus ATCC 6538P incubated in drug free medium for 18 hrs after MIC determination by broth microdilution method; format: functional
[8] = tested on: Staphylococcus epidermidis; assay: Antibacterial activity against Staphylococcus epidermidis ATCC 35984 assessed as inhibition of planktonic growth at sub-MIC measured up to 25 hrs; format: functional, organism-based
Staphylococcus aureus [9] = assay: Antibacterial activity against Staphylococcus aureus ATCC 6538P assessed as change in bacterial surface protein level at sub-MIC by SDS-PAGE analysis; format: functional, organism-based
[10] = tested on: Staphylococcus epidermidis; assay: Antibacterial activity against Staphylococcus epidermidis ATCC 35984 assessed as disappearance of bacterial surface protein level at sub-MIC by SDS-PAGE analysis; format: functional, organism-based
Staphylococcus aureus [11] = assay: Antibacterial activity against Staphylococcus aureus ATCC 6538P assessed as change in bacterial surface protein level at sub-MIC by zymographic analysis; format: functional, organism-based
[12] = tested on: Staphylococcus epidermidis; assay: Antibacterial activity against Staphylococcus epidermidis ATCC 35984 assessed as disappearance of bacterial surface proteins level at sub-MIC by zymographic analysis; format: functional, organism-based
[13] = tested on: Staphylococcus epidermidis; assay: Antibacterial activity against Staphylococcus epidermidis ATCC 35984 assessed as modification of bacterial surface protein pattern at 14 uM by zymographic analysis; format: functional, organism-based
[14] = tested on: Staphylococcus epidermidis; assay: Antibacterial activity against Staphylococcus epidermidis ATCC 35984 assessed as modification of bacterial surface protein pattern at 4 uM by zymographic analysis; format: functional, organism-based
[15] = tested on: Staphylococcus epidermidis; assay: Antibacterial activity against Staphylococcus epidermidis ATCC 35984 assessed as modification of bacterial surface protein pattern at 8 uM by zymographic analysis; format: functional, organism-based
[16] = Ratio of MIC for Staphylococcus aureus ATCC 6538P to MIC for Staphylococcus epidermidis ATCC 35984; format: functional

| Compound | Activity (Staphylococcus aureus [1]) | EC50 [2] | EC50 (Staphylococcus aureus [3]) | MBC [4] | MIC [5] | MIC (Staphylococcus aureus [6]) | MBC (Staphylococcus aureus [7]) | Activity [8] | Activity (Staphylococcus aureus [9]) | Activity [10] | Activity (Staphylococcus aureus [11]) | Activity [12] | Activity [13] | Activity [14] | Activity [15] | Ratio [16] |
| --- | --- | --- | --- | --- | --- | --- | --- | --- | --- | --- | --- | --- | --- | --- | --- | --- |
| Oc1cc(O)c2c(c1)O[C@@]1(c3ccc(O)c(O)c3)Oc3cc(O)c4c(c3[C@@H]2[C@H]1O)O[C@H](c1ccc(O)c(O)c1)[C@H](O)C4 [PROANTHOCYANIDIN A2] | inactive | 7.6 µM | 6.9 µM | > 169 µM | > 169 µM | > 169 µM | > 169 µM | inactive | inactive | Active | inactive | Active |  |  |  |  |
| Oc1ccc(-c2cc3ccccc3o2)c(O)c1 | inactive | 23.5 µM | 8.2 µM | 55.3 µM (≈ 12.5 µg/mL) | 55.3 µM (≈ 12.5 µg/mL) | 55.3 µM (≈ 12.5 µg/mL) | 55.3 µM (≈ 12.5 µg/mL) | inactive | inactive |  | inactive |  | inactive |  |  |  |
| COc1ccc2c(c[n+](C)c3c4cc5c(cc4ccc23)OCO5)c1OC [CHELERYTHRINE CHLORIDE] | inactive | 8.6 µM | 15.2 µM | > 260 µM | 16.3 µM | 16.3 µM | > 260 µM | inactive | inactive |  | inactive |  |  | inactive |  |  |
| C[n+]1cc2c3c(ccc2c2ccc4cc5c(cc4c21)OCO5)OCO3 [SANGUINARIUM] | inactive | 4.4 µM | 24.5 µM | 34 µM | 8.5 µM | 34 µM | 34 µM | inactive | inactive | Active | inactive |  |  |  | inactive | 4 |
